# In US7560552B2, “Thiopyrimidine and isothiazolopyrimidine kinase inhibitors” (Abbott Laboratories, priority 2002, dated 2009):
row,Compound,melting point [°C]
1,"Cc1ccccc1NC(=O)Nc1ccc(-c2c(Cc3ccccc3)sc3ncnc(N)c23)cc1 [Example 11, N-[4-(4-amino-6-benzylthieno[2,3-d]pyrimidin-5-yl)phenyl]-N′-(2-methylphenyl)urea]",245 to 248
2,"Cc1ccccc1NC(=O)Nc1ccc(-c2c(CCO)sc3ncnc(N)c23)cc1 [Example 107, N-{4-[4-amino-6-(2-hydroxyethyl)thieno[2,3-d]pyrimidin-5-yl]phenyl}-N′-(2-methylphenyl)urea]",159 to 162
3,"Nc1ncnc2sc(Cc3cccnc3)c(-c3ccc(NC(=O)Nc4cccc(Cl)c4)cc3)c12 [Example 117, N-{4-[4-amino-6-(pyridin-3-ylmethyl)thieno[2,3-d]pyrimidin-5-yl]phenyl}-N′-(3-chlorophenyl)urea]",169 to 172
4,"COCCc1sc2ncnc(N)c2c1-c1ccc(NC(=O)Cc2cccc(C)c2)cc1 [Example 112, N-{4-[4-amino-6-(2-methoxyethyl)thieno[2,3-d]pyrimidin-5-yl]phenyl}-2-(3-methylphenyl)acetamide]",200 to 202
5,"Cc1ccc(NC(=O)Nc2ccc(-c3c(Cc4ccccc4)sc4ncnc(N)c34)cc2)cc1 [Example 9, N-[4-(4-amino-6-benzylthieno[2,3-d]pyrimidin-5-yl)phenyl]-N′-(4-methylphenyl)urea]",169 to 173
6,"COCCc1sc2ncnc(N)c2c1-c1ccc(NC(=O)c2ccccc2)cc1 [Example 113, N-{4-[4-amino-6-(2-methoxyethyl)thieno[2,3-d]pyrimidin-5-yl]phenyl}benzamide]",200 to 202
7,"Nc1ncnc2sc(Cc3ccccc3)c(-c3ccc(NS(=O)(=O)c4ccccc4)cc3)c12 [Example 13, N-[4-(4-amino-6-benzylthieno[2,3-d]pyrimidin-5-yl)phenyl]benzenesulfonamide]",100 to 105
8,"COCCc1sc2ncnc(N)c2c1-c1ccc(NC(=O)Nc2ccc(C)cc2)cc1 [Example 110, N-{4-[4-amino-6-(2-methoxyethyl)thieno[2,3-d]pyrimidin-5-yl]phenyl}-N′-(4-methylphenyl)urea]",128 to 132
9,"COCCc1sc2ncnc(N)c2c1-c1ccc(NS(=O)(=O)c2ccccc2)cc1 [Example 111, N-{4-[4-amino-6-(2-methoxyethyl)thieno[2,3-d]pyrimidin-5-yl]phenyl}benzenesulfonamide]",206 to 208
10,"Cc1ccccc1NC(=O)Nc1ccc(-c2c(C(C)C)sc3ncnc(N)c23)cc1 [Example 12, N-[4-(4-amino-6-isopropylthieno[2,3-d]pyrimidin-5-yl)phenyl]-N′-(2-methylphenyl)urea]",233 to 234
11,"CC(C)c1sc2ncnc(N)c2c1-c1ccc(NC(=O)c2ccccc2)cc1 [Example 8, N-[4-(4-amino-6-isopropylthieno[2,3-d]pyrimidin-5-yl)phenyl]benzamide]",> 250

# Now from value to molecule:
row,melting point [°C],Compound
1,142 to 144,"Cc1cccc(CC(=O)Nc2ccc(-c3c(CCO)sc4ncnc(N)c34)cc2)c1 [Example 350, N-{4-[4-amino-6-(2-hydroxyethyl)thieno[2,3-d]pyrimidin-5-yl]phenyl}-2-(3-methylphenyl)acetamide]"
2,155 to 158,"Nc1ncnc2sc(CCO)c(-c3ccc(NC(=O)Nc4cccc(C(F)(F)F)c4)cc3)c12 [Example 139, N-{4-[4-amino-6-(2-hydroxyethyl)thieno[2,3-d]pyrimidin-5-yl]phenyl}-N′-[3-(trifluoromethyl)phenyl]urea]"
3,162 to 166,"Nc1ncnc2sc(Cc3ccncc3)c(-c3ccc(NC(=O)Nc4cccc(C(F)(F)F)c4)cc3)c12 [Example 142, N-{4-[4-amino-6-(pyridin-4-ylmethyl)thieno[2,3-d]pyrimidin-5-yl]phenyl}-N′-[3-(trifluoromethyl)phenyl]urea]"
4,217 to 219,"COCCc1sc2ncnc(N)c2c1-c1ccc(NC(=O)Nc2ccccc2C)cc1 [Example 137, N-{4-[4-amino-6-(2-methoxyethyl)thieno[2,3-d]pyrimidin-5-yl]phenyl}-N′-(2-methylphenyl)urea]"
5,209 to 211,"COCCc1sc2ncnc(N)c2c1-c1ccc(NC(=O)Nc2cc(C(F)(F)F)ccc2F)cc1 [Example 140, N-{4-[4-amino-6-(2-methoxyethyl)thieno[2,3-d]pyrimidin-5-yl]phenyl}-N′-[2-fluoro-5-(trifluoromethyl)phenyl]urea]"
